Test results as given in patent US5665704A, “Receptor specific atrial natriuretic peptides” (Genentech, Inc., priority 1995, dated 1997).
Bridge positions count the residues as written; N and C are the ends. Square brackets hold non-standard residues; d marks the D form. Peptide text beside a SMILES is read from it. ξ: configuration not given here. ξPhg = NC(C(=O)O)c1ccccc1; Mpa = O=C(O)CCS

Experiments:
hNPR-C = target: T1, hNPR-C (Homo sapiens, UniProt P17342); assay: Binding affinity for clearance receptor hNPR-C; settings: Table I; read-out: Binding Affinity IC50 (pM) hNPR-C
T1 sequence (P17342 27-541): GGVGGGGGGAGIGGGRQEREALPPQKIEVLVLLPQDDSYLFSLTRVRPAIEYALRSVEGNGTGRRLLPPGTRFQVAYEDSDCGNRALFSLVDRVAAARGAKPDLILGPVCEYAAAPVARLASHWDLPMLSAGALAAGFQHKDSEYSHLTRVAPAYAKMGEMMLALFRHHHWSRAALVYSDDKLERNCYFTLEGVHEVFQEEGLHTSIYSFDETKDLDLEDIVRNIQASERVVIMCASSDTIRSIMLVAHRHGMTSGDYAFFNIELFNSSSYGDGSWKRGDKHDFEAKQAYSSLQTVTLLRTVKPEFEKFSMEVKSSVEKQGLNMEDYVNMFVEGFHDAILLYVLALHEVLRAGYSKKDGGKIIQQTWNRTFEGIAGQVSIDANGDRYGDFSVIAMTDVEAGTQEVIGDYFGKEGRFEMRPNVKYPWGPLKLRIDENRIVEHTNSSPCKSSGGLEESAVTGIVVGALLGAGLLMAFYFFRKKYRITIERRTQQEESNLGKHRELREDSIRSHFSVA
Excerpt: For assay systems to measure binding of hANF and the compounds of this invention to hNPR-C see: Schank, D. B., et al., Biochem. Biophys. Res. Comm. 127:433-442 (1985); Scarborough, R. M., J. Biol. Chem. 261:12960-12964 and WO 90/01940.

hNPR-A = target: T2, hNPR-A (Homo sapiens, UniProt P16066); assay: Binding affinity for hNPR-A (competitive displacement of I^125 labeled wild-type ANF); settings: Table I; read-out: Binding Affinity IC50 (pM) hNPR-A
T2 sequence (P16066 33-1061): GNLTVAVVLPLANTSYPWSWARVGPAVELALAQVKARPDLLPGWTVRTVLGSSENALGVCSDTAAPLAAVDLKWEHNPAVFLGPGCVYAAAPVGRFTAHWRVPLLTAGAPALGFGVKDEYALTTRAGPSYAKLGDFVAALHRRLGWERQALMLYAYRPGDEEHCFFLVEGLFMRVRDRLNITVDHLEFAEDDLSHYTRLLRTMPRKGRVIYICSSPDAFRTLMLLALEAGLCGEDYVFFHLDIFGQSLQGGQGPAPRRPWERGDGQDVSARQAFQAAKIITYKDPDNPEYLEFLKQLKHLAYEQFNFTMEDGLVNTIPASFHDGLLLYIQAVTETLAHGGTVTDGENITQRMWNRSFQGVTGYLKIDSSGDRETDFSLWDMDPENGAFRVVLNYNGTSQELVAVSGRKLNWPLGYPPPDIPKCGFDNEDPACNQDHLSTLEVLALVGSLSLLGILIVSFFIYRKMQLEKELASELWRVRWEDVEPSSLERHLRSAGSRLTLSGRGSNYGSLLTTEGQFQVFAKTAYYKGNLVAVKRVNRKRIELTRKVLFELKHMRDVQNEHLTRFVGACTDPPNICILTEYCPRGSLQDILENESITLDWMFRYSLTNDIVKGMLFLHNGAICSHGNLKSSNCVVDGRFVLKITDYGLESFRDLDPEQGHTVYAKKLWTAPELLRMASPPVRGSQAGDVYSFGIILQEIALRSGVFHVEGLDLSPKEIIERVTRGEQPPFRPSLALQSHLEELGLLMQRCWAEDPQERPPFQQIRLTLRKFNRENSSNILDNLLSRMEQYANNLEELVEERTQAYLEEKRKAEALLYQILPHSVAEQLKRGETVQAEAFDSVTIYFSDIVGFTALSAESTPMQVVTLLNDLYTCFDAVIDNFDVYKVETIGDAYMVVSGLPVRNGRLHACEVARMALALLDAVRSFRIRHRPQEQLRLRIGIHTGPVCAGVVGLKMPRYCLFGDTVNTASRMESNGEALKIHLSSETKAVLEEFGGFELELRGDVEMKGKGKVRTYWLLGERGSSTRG

Row | Compound | IC50 (hNPR-C) [pM] | IC50 (hNPR-A) [pM]
1 | CC[C@H](C)[C@@H]1NC(=O)[C@H](CCCNC(=N)N)NC(=O)[C@H](CC(=O)O)NC(=O)[C@H]([C@@H](C)CC)NC(=O)[C@H](CO)NC(=O)CNC(=O)[C@H]([C@@H](C)O)NC(=O)[C@H](Cc2ccccc2)NC(=O)[C@@H](NC(=O)[C@H](CO)NC(=O)[C@H](CO)NC(=O)[C@H](CCCNC(=N)N)NC(=O)[C@H](CCCNC(=N)N)NC(=O)[C@H](CC(C)C)NC(=O)[C@@H](N)CO)CSSC[C@@H](C(=O)N[C@@H](CC(N)=O)C(=O)N[C@@H](CO)C(=O)N[C@@H](Cc2ccccc2)C(=O)N[C@@H](CCCNC(=N)N)C(=O)N[C@@H](Cc2ccc(O)cc2)C(=O)O)NC(=O)CNC(=O)[C@H](CC(C)C)NC(=O)CNC(=O)[C@H](CO)NC(=O)[C@@H]2CCCN2C(=O)[C@H](C)NC(=O)[C@H](CCCNC(=N)N)NC1=O [ANF31] (H-SLRRSSCFTGSIDRIRAPSGLGCNSFRY-OH; disulfide 7-23) | 3.21e+06 | 52
2 | CC[C@H](C)[C@@H]1NC(=O)[C@H](CCCNC(=N)N)NC(=O)[C@H](CC(=O)O)NC(=O)[C@H]([C@@H](C)CC)NC(=O)[C@H](CO)NC(=O)CNC(=O)[C@H]([C@@H](C)O)NC(=O)[C@H](Cc2ccccc2)NC[C@@H](NC(=O)[C@H](CO)NC(=O)[C@H](CO)NC(=O)[C@H](CCCNC(=N)N)NC(=O)[C@H](CCCNC(=N)N)NC(=O)[C@H](CC(C)C)NC(=O)[C@@H](N)CO)CSSC[C@@H](C(=O)N[C@@H](CC(N)=O)C(=O)N[C@@H](CO)C(=O)N[C@@H](Cc2ccccc2)C(=O)N[C@@H](CCCNC(=N)N)C(=O)N[C@@H](Cc2ccc(O)cc2)C(=O)O)NC(=O)CNC(=O)[C@H](CC(C)C)NC(=O)CNC(=O)[C@H](CO)NC(=O)[C@H](CCC(N)=O)NC(=O)[C@H](C)NC(=O)[C@H](CCCNC(=N)N)NC1=O [ANF84] | 1.9e+07 | 21
3 | CC[C@H](C)[C@@H]1NC(=O)[C@H](CCCNC(=N)N)NC(=O)[C@H](CC(=O)O)NC(=O)[C@H]([C@@H](C)CC)NC(=O)[C@H](CO)NC(=O)CNC(=O)[C@H]([C@@H](C)O)NC(=O)[C@H](Cc2ccccc2)N(C)C(=O)[C@@H](NC(=O)[C@H](CO)NC(=O)[C@H](CO)NC(=O)[C@H](CCCNC(=N)N)NC(=O)[C@H](CCCNC(=N)N)NC(=O)[C@H](CC(C)C)NC(=O)[C@@H](N)CO)CSSC[C@@H](C(=O)N[C@@H](CC(N)=O)C(=O)N[C@@H](CO)C(=O)N[C@@H](Cc2ccccc2)C(=O)N[C@@H](CCCNC(=N)N)C(=O)N[C@@H](Cc2ccc(O)cc2)C(=O)O)NC(=O)CNC(=O)[C@H](CC(C)C)NC(=O)CNC(=O)[C@H](CO)NC(=O)[C@H](CCC(N)=O)NC(=O)[C@H](C)NC(=O)[C@H](CCCNC(=N)N)NC1=O [ANF83] | 3.44e+06 | 16
4 | CC[C@H](C)[C@@H]1NC(=O)[C@H](CO)NC(=O)[C@H](CC(=O)O)NC(=O)[C@H]([C@@H](C)CC)NC(=O)[C@H](CCCNC(=N)N)NC(=O)CNC(=O)CNC(=O)[C@H](Cc2ccccc2)NC(=O)[C@@H](NC(=O)[C@H](CO)NC(=O)[C@H](CO)NC(=O)[C@H](CCCNC(=N)N)NC(=O)[C@H](CCCNC(=N)N)NC(=O)[C@H](CC(C)C)NC(=O)[C@@H](N)CO)CSSC[C@@H](C(=O)N[C@@H](CC(N)=O)C(=O)N[C@@H](CO)C(=O)N[C@@H](Cc2ccccc2)C(=O)N[C@@H](CCCNC(=N)N)C(=O)N[C@@H](Cc2ccc(O)cc2)C(=O)O)NC(=O)CNC(=O)[C@H](CC(C)C)NC(=O)CNC(=O)[C@H](CO)NC(=O)[C@H](CCC(N)=O)NC(=O)[C@H](C)NC(=O)[C@H](CCCNC(=N)N)NC1=O [ANF25] (H-SLRRSSCFGGRIDSIRAQSGLGCNSFRY-OH; disulfide 7-23) | 3310 | 56
5 | CC[C@H](C)[C@@H]1NC(=O)[C@H](CCCNC(=N)N)NC(=O)[C@H](CC(=O)O)NC(=O)[C@H]([C@@H](C)CC)NC(=O)[C@H](CO)NC(=O)CNC(=O)[C@@H]([C@H](C)O)NC(=O)[C@H](Cc2ccccc2)NC(=O)CCSSC[C@@H](C(=O)N[C@@H](CC(N)=O)C(=O)N[C@@H](CO)C(=O)N[C@@H](Cc2ccccc2)C(=O)N[C@@H](CCCNC(=N)N)C(=O)N[C@@H](Cc2ccc(O)cc2)C(=O)O)NC(=O)CNC(=O)[C@H](CC(C)C)NC(=O)CNC(=O)[C@H](CO)NC(=O)[C@H](CCC(N)=O)NC(=O)[C@H](C)NC(=O)[C@H](CCCNC(=N)N)NC1=O [ANF80] ([Mpa]F[dT]GSIDRIRAQSGLGCNSFRY-OH; disulfide 1-17) | 739000 | 423

Continued by falling IC50 (hNPR-C), values first:

Row | IC50 (hNPR-C) [pM] | IC50 (hNPR-A) [pM] | Compound
6 | 6.14e+06 | 1200 | CC[C@H](C)[C@@H]1NC(=O)[C@H](CCCNC(=N)N)NC(=O)[C@H](CC(=O)O)NC(=O)[C@H]([C@@H](C)CC)NC(=O)[C@H](CC(=O)O)NC(=O)CNC(=O)[C@@H](C)NC(=O)[C@H](Cc2ccccc2)NC(=O)[C@@H](NC(=O)[C@H](CO)NC(=O)[C@H](CO)NC(=O)[C@H](CCCNC(=N)N)NC(=O)[C@H](CCCNC(=N)N)NC(=O)[C@H](CC(C)C)NC(=O)[C@@H](N)CO)CSSC[C@@H](C(=O)N[C@@H](CC(N)=O)C(=O)N[C@@H](CO)C(=O)N[C@@H](Cc2ccccc2)C(=O)N[C@@H](CCCNC(=N)N)C(=O)N[C@@H](Cc2ccc(O)cc2)C(=O)O)NC(=O)CNC(=O)[C@H](CC(C)C)NC(=O)CNC(=O)[C@H](CO)NC(=O)[C@H](CCC(N)=O)NC(=O)[C@H](C)NC(=O)[C@H](CCCNC(=N)N)NC1=O [ANF90] (H-SLRRSSCF[dA]GDIDRIRAQSGLGCNSFRY-OH; disulfide 7-23)
7 | 3.23e+06 | 187 | CC[C@H](C)[C@@H]1NC(=O)[C@H](CCCNC(=N)N)NC(=O)[C@H](CC(=O)O)NC(=O)[C@H]([C@@H](C)CC)NC(=O)[C@H](CO)NC(=O)CNC(=O)[C@H]([C@@H](C)O)NC(=O)C(c2ccccc2)NC(=O)[C@@H](NC(=O)[C@H](CO)NC(=O)[C@H](CO)NC(=O)[C@H](CCCNC(=N)N)NC(=O)[C@H](CCCNC(=N)N)NC(=O)[C@H](CC(C)C)NC(=O)[C@@H](N)CO)CSSC[C@@H](C(=O)N[C@@H](CC(N)=O)C(=O)N[C@@H](CO)C(=O)N[C@@H](Cc2ccccc2)C(=O)N[C@@H](CCCNC(=N)N)C(=O)N[C@@H](Cc2ccc(O)cc2)C(=O)O)NC(=O)CNC(=O)[C@H](CC(C)C)NC(=O)CNC(=O)[C@H](CO)NC(=O)[C@H](CCC(N)=O)NC(=O)[C@H](C)NC(=O)[C@H](CCCNC(=N)N)NC1=O (stereo partly shown) [ANF100-1] (H-SLRRSSC[ξPhg]TGSIDRIRAQSGLGCNSFRY-OH; disulfide 7-23)
8 | 2e+06 | 2080 | CC[C@H](C)[C@@H]1NC(=O)[C@H](CCCNC(=N)N)NC(=O)[C@H](CC(=O)O)NC(=O)[C@H]([C@@H](C)CC)NC(=O)[C@H](CO)NC(=O)CNC(=O)[C@H]([C@@H](C)O)NC(=O)[C@H](Cc2ccccc2)NC(=O)[C@@H](C)NC(=O)[C@@H](NC(=O)[C@H](CO)NC(=O)[C@H](CO)NC(=O)[C@H](CCCNC(=N)N)NC(=O)[C@H](CCCNC(=N)N)NC(=O)[C@H](CC(C)C)NC(=O)[C@@H](N)CO)CSSC[C@@H](C(=O)N[C@@H](CC(N)=O)C(=O)N[C@@H](CO)C(=O)N[C@@H](Cc2ccccc2)C(=O)N[C@@H](CCCNC(=N)N)C(=O)N[C@@H](Cc2ccc(O)cc2)C(=O)O)NC(=O)CNC(=O)[C@H](CC(C)C)NC(=O)CNC(=O)[C@H](CO)NC(=O)[C@H](CCC(N)=O)NC(=O)[C@H](C)NC(=O)[C@H](CCCNC(=N)N)NC1=O [ANF75] (H-SLRRSSC[dA]FTGSIDRIRAQSGLGCNSFRY-OH; disulfide 7-24)
